Source: ChEMBL document CHEMBL4340507, “Identification of an indol-based multi-target kinase inhibitor through phenotype screening and target fishing using inverse virtual screening approach” (Eur J Med Chem, 2019)
pIC50: −log10 of the molar value.

Tests used:
[1] = test system: PC-3; assay: Antiproliferative activity against human PC3 cells assessed as decrease in cell viability measured after 72 hrs by MTT assay; format: functional, cell-based; conditions: PC-3, 72 h
[2] = test system: Jurkat; assay: Antiproliferative activity against human Jurkat T cells assessed as decrease in cell viability measured after 24 to 72 hrs by MTT assay; format: functional, cell-based
[3] = test system: IEC-6; assay: Cell cycle arrest in rat IEC-6 cells assessed as accumulation at G0/G1-phase at 0.1 to 0.6 uM after 24 hrs by propidium iodide staining-based FACS analysis; format: ADME; conditions: iec-6, 24 h
[4] = biological target: SRSF protein kinase 1 (Homo sapiens, UniProt Q96SB4); assay: Inhibition of recombinant human full-length N-terminal GST-His6-fused SRPK1 (M1 to S655 residues) expressed in Sf9 insect cells using RS-peptide as substrate measured after 60 mins in presence of [gamma-33P]-ATP by scintillation counting method
Sequence of SRSF protein kinase 1 (Q96SB4 whole entry, the tested form may be a part): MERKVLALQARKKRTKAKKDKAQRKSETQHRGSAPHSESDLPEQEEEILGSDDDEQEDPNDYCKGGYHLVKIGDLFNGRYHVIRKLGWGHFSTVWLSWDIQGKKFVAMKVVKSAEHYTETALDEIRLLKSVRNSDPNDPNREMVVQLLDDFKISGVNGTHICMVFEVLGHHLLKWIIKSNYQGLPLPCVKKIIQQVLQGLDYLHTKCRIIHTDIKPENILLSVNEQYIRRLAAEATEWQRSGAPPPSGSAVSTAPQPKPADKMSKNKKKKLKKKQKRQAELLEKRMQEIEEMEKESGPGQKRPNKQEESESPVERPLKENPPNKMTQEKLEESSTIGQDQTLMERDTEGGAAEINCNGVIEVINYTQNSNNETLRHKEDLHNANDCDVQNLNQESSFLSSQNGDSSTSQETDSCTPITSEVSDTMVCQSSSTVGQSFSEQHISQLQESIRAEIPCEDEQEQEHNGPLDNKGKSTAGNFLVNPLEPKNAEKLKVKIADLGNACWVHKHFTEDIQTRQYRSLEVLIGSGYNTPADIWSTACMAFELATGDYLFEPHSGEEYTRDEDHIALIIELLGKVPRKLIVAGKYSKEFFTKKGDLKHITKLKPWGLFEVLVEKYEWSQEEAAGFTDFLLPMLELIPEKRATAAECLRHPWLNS

[5] = biological target: Mitogen-activated protein kinase kinase kinase 10 (Homo sapiens, UniProt Q02779); assay: Inhibition of recombinant human MAP3K10 measured after 60 mins in presence of [gamma-33P]-ATP by scintillation counting method
[6] = biological target: Fibroblast growth factor receptor 2 (Homo sapiens, UniProt P21802); assay: Inhibition of recombinant human N-terminal GST-His6-fused FGFR2 C-terminal domain (R400 to T822 residues) expressed in Sf9 insect cells using TRK-C derived peptide as substrate measured after 60 mins in presence of [gamma-33P]-ATP by scintillation counting method
Sequence of Fibroblast growth factor receptor 2 (P21802 whole entry, the tested form may be a part): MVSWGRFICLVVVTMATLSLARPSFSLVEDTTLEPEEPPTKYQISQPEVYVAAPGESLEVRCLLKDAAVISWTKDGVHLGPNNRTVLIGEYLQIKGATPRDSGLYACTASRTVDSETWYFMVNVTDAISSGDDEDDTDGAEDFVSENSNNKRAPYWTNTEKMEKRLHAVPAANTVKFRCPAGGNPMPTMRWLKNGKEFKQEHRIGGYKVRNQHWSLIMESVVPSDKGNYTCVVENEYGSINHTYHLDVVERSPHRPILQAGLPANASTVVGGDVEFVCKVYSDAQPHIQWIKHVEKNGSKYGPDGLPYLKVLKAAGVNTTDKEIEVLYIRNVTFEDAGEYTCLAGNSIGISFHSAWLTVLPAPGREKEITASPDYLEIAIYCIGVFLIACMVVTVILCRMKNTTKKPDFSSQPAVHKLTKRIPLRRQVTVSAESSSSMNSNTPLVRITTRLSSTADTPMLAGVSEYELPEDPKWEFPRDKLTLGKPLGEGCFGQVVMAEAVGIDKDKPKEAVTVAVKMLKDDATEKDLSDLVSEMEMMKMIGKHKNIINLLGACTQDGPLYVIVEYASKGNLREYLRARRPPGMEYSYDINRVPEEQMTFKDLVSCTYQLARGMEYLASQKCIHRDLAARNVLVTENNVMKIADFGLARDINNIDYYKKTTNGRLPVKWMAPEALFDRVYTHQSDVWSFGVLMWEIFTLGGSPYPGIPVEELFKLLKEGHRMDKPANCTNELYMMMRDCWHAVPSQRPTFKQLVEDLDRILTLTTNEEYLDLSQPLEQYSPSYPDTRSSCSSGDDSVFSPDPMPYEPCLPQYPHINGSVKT

[7] = biological target: Receptor tyrosine-protein kinase erbB-2 (Homo sapiens, UniProt P04626); assay: Inhibition of recombinant human wild-type N-terminal GST-His6-fused ERBB2 C-terminal domain (Q679 to V1255 residues) expressed in Sf9 insect cells using Poly(Glu:Tyr)4:1 as substrate measured after 60 mins in presence of [gamma-33P]-ATP by scintillation counting method
Sequence of Receptor tyrosine-protein kinase erbB-2 (P04626 whole entry, the tested form may be a part): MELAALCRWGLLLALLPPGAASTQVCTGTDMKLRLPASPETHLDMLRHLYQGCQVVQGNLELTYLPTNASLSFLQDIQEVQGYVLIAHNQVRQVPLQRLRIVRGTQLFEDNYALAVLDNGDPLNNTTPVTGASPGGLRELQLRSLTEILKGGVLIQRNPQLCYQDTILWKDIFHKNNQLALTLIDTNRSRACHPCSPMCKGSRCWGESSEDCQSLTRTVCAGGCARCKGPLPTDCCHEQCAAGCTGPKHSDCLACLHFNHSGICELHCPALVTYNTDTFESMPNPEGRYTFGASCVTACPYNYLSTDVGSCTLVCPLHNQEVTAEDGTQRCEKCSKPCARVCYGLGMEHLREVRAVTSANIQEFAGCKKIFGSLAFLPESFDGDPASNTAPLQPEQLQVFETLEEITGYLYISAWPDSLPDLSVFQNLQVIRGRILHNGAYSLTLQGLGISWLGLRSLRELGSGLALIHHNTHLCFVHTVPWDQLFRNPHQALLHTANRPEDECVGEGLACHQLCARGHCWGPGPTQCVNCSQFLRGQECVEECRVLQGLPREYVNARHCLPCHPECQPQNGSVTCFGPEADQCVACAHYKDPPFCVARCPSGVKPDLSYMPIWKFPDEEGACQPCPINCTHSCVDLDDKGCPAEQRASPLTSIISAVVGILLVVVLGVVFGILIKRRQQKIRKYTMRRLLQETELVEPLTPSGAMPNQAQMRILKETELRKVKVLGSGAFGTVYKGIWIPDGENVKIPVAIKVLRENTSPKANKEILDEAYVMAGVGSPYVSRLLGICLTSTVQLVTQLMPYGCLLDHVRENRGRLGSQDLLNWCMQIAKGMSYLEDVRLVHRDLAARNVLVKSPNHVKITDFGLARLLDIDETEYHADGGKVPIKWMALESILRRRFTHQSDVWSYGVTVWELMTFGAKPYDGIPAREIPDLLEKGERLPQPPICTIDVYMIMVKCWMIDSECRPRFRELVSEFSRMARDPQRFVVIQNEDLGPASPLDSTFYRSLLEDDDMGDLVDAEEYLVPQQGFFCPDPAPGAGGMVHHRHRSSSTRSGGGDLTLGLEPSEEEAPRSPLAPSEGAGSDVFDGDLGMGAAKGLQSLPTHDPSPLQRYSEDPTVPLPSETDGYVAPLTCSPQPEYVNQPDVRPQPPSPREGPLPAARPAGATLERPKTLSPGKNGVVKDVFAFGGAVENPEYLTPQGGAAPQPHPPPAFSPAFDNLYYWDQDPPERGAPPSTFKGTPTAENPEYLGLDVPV

[8] = biological target: Tyrosine-protein kinase ABL1 (Homo sapiens, UniProt P00519); assay: Inhibition of recombinant human wild-type N-terminal GST-His6-fused ABL1 internal domain (P118 to S535 residues) expressed in Sf9 insect cells using Poly(Ala,Glu,Lys,Tyr)6:2:5:1 as substrate measured after 60 mins in presence of [gamma-33P]-ATP by scintillation counting method
Sequence of Tyrosine-protein kinase ABL1 (P00519 whole entry, the tested form may be a part): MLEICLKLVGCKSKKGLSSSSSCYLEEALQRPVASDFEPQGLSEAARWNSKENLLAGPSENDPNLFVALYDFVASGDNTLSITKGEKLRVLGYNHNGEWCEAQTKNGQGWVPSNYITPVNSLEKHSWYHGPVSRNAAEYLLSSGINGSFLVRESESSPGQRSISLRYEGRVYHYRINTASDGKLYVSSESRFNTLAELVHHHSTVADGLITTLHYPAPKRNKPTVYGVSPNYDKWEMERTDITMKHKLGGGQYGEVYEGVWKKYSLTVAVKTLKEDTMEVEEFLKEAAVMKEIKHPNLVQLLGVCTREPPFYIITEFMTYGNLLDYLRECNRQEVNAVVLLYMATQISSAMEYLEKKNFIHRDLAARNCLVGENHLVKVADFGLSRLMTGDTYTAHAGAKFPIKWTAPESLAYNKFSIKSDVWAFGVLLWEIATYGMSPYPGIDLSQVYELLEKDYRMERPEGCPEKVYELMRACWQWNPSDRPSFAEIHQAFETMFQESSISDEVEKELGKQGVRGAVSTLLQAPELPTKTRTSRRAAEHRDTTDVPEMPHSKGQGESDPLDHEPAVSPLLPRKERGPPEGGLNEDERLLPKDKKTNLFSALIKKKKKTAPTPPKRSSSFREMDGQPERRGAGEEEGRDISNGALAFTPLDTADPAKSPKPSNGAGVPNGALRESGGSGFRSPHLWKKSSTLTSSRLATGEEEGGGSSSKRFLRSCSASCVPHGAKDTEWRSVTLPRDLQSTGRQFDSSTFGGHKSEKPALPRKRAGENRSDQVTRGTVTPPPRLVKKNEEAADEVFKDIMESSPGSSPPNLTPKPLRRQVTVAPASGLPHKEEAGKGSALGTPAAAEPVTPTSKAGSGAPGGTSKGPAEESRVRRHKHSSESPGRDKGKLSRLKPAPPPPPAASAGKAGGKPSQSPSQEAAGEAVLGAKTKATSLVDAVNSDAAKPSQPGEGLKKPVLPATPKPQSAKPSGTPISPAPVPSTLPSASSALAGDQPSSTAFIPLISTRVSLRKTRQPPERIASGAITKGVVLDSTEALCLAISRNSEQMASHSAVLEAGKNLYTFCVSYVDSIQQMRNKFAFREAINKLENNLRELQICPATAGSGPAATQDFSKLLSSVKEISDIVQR

[9] = biological target: Dual specificity mitogen-activated protein kinase kinase 2 (Homo sapiens, UniProt P36507); assay: Inhibition of recombinant human MEK2 measured after 60 mins in presence of [gamma-33P]-ATP by scintillation counting method
[10] = biological target: Serine/threonine-protein kinase Chk2 (Homo sapiens, UniProt O96017); assay: Inhibition of recombinant human CHK2 measured after 60 mins in presence of [gamma-33P]-ATP by scintillation counting method
Sequence of Serine/threonine-protein kinase Chk2 (O96017 whole entry, the tested form may be a part): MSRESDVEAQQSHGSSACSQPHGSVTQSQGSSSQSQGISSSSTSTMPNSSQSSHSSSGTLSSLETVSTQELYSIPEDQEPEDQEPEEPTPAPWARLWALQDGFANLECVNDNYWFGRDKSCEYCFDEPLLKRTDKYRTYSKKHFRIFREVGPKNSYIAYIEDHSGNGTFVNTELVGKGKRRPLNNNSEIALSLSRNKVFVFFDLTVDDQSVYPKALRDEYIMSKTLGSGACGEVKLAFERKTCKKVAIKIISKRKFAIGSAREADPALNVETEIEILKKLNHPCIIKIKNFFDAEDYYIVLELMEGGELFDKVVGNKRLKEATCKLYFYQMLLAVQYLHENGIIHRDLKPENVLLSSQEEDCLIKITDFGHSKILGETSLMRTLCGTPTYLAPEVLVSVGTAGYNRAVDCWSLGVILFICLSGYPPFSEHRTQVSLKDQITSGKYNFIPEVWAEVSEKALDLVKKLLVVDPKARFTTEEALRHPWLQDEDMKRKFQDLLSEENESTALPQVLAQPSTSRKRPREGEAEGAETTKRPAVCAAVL

[11] = biological target: Mitogen-activated protein kinase 7 (Homo sapiens, UniProt Q13164); assay: Inhibition of recombinant human N-terminal FLAG-tagged/C-terminal His8 fused ERK5 internal fragment domain (L5 to Q397 residues) expressed in Sf9 insect ells using RBER-CHKtide as substrate measured after 60 mins in presence of [gamma-33P]-ATP by scintillation counting method
[12] = biological target: RAC-beta serine/threonine-protein kinase (Homo sapiens, UniProt P31751); assay: Inhibition of recombinant human full-length N-terminal GST-His6-fused AKT2 (M1 to E481 residues) expressed in Sf9 insect cells using GSK3-derived peptide as substrate measured after 60 mins in presence of [gamma-33P]-ATP by scintillation counting method
Sequence of RAC-beta serine/threonine-protein kinase (P31751 whole entry, the tested form may be a part): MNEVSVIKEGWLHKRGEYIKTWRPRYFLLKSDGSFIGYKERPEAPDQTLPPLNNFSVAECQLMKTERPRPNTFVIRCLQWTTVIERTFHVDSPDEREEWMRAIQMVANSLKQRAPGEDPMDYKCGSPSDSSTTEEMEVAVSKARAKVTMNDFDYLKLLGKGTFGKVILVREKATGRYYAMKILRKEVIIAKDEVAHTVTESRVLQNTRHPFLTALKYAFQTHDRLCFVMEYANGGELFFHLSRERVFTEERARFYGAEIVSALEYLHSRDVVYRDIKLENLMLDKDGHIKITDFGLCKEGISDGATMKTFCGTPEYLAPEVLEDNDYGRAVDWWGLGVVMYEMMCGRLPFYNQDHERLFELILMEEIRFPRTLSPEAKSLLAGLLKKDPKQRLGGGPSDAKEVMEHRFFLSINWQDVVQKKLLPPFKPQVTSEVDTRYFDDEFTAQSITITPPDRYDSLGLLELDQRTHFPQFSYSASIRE

With CN(CCc1ccc(-c2ccccc2)cc1)Cc1cn(C)c2ccc(C(=O)Nc3ccc(F)cc3)cc12 the pIC50 [1] was 4.77, the pIC50 [2] was 5.57 and the Activity [3] was “Toxic”. It also gave a pIC50 [4] of 5.11, a pIC50 [5] of 4.74 and a pIC50 [6] of 4.64. The pIC50 [7] was 4.62, the pIC50 [8] was 4.16 and the pIC50 [9] was 4.13. For the same compound, the pIC50 [10] was 4.10, the pIC50 [11] was 4.05 and the pIC50 [12] was < 4.00.
